Common to all, as to format: biochemical
One experiment deals with T1, PI3Kalpha (Homo sapiens, UniProt P42336).
T1 construct: His (N); host or cells: SF9 insect cells (baculovirus)
The experiment can be described thus: Human PI3Kα enzyme assay (HTRF). The following applies: for inhibition at 1.11 µM: read-out: PI3Kalpha % inh; for PI3Kalpha % inh: at 1.11 μM. An excerpt:
(§1) The catalytic subunits of PI3Ks are cloned into either pDEST8(p110 alpha) or pDEST10(p110beta, p110delta, and p110gamma) as N-terminal His tagged fusion proteins using the Gateway system (Invitrogen, catalog#11804-010 for pDEST8 and 11806-015 for pDEST10). The sequences are verified before recombinant protein expression using the Baculovirus Expression System with Gateway® Technology. The accession numbers for the subunits are as follows:
(§2) The regulatory subunits of PI3Ks are cloned into pDEST8 as un-tagged protein using the Gateway system (Catalog#11804-010). The sequences are verified before recombinant protein expression using the Baculovirus Expression System with Gateway® Technology. The accession numbers for the subunits are as follows:
(§3) For expression of the p110 complexes, the p85 (MOI of 4) is co-infected with p110 alpha, beta, and delta respectively (1MOI) in SF9 cells and harvested at 60 hours post co-infection. P110 gamma was infected at 1 MOI and harvested at 60 hours post infection.
(§4) For purification, PI3Ks are purified by Ni-NTA Agarose (Qiagen #30250) followed by Mono Q 10/100 GL (Ge Healthcare #17-5167-01). VPS34 is purified by Glutathione Sepharose 4 Fast Flow (GE Healthcare #17-5132-03) followed by HiTrap Q (GE Healthcare #17-1153-01).
1) Human PI3Kα enzyme assay method
(§5) 0.5 uL compounds in DMSO are added to wells of a 384 well microtitre plate (Corning 3575). At room temperature: 10 ul PI3K reaction buffer (50 mM Hepes, 5 mM DTT, 150 mM NaCl, 10 mM beta-glycerophosphate, 10 mM MgCl2, 0.25 mM sodium cholate and 0.001% CHAPS, pH 7.00) containing ATP (25 uM, Promega) is added followed immediately by 10 ul PI3K reaction buffer containing di-C8 PI(4,5)P2 (3.5 uM, CellSignals) and PI3Kalpha (0.4875 nM, Millennium Protein Sciences Group) and the mixture is incubated with shaking at room temperature for 30 minutes. Then 5 ul PI3K stop mix (50 mM Hepes, 5 mM DTT, 150 mM NaCl, 0.01% Tween-20, 15 mM EDTA and 25 nM biotin-PI(3,4,5)P3 (Echelon) is added to quench the reaction followed immediately by addition of 5 ul HTRF detection mix (50 mM Hepes, 5 mM DTT, 150 mM NaCl, 0.01% Tween-20, 40 mM KF, 10 nM GST:GRP-1 PH domain (Millennium Protein Sciences Group), 15 nM Streptavidin-XL (CisBio) and 0.375 nM anti-GST Eu++ antibody (CisBio) at pH 7.00). The plates are then incubated for 1 hour at room temperature with shaking and then read on a BMG PheraStar Plus reader.

In a further experiment the target is T2, PI3Kbeta (Homo sapiens, UniProt P42338).
T2 construct: His (N); host or cells: SF9 insect cells (baculovirus)
The experiment can be described thus: Human PI3K beta enzyme assay (HTRF, as for PI3K alpha). The conditions noted are these: for PI3Kbeta % inh / inhibition at 1.11 µM: at 1.11 μM; for IC50: read-out: IC50 (inhibit PI3Kbeta); for inhibition at 1.11 µM: read-out: PI3Kbeta % inh.
Text: as §1, §2, §3, §4, §5
(§6) 2) Human PI3K beta, delta and gamma isoforms are tested using the procedure described for PI3K alpha above but with the following changes: PI3K beta (5.25 nM), PI3K delta (0.75 nM) and PI3K gamma (5 nM). All isoforms supplied by Millennium Protein Science Group.
On the technique in general: TR-FRET usually uses a lanthanide donor and a delayed reading to cut background.

Another experiment concerns the target T3, PI3Kgamma (Homo sapiens, UniProt P48736).
T3 construct: His (N); host or cells: SF9 insect cells (baculovirus)
Kind of experiment: Human PI3K gamma enzyme assay (HTRF, as for PI3K alpha). The following applies: for PI3Kgamma % inh: at 1.11 μM; for inhibition at 1.11 µM: read-out: PI3Kgamma % inh.
Text: as §1, §2, §3, §4, §5, §6

Another experiment deals with T4, PI3Kdelta (Homo sapiens, UniProt O00329).
T4 construct: His (N); host or cells: SF9 insect cells (baculovirus)
The experiment can be described thus: Human PI3K delta enzyme assay (HTRF, as for PI3K alpha). The following applies: for PI3Kdelta % inh: at 1.11 μM; for inhibition at 1.11 µM: read-out: PI3Kdelta % inh.
Text: as §1, §2, §3, §4, §5, §6

The target in another experiment is T5, VPS34 (Homo sapiens, UniProt Q8NEB9).
T5 construct: GST (N); host or cells: SF9 insect cells (baculovirus)
Kind of experiment: Human VPS34 enzyme assay (Adapta Universal Kinase Assay). The following applies: for VPS34 % ihn: at 1.11 μM; for inhibition at 1.11 µM: 1 h, read-out: VPS34 % ihn. The protocol:
VPS34 (accession number GB:BC033004) is cloned into pDEST20-Thombin as N-terminal GST tagged fusion proteins using the Gateway system (Invitrogen, catalog#11804-013). The sequences are verified before recombinant protein expression using the Baculovirus Expression System with Gateway® Technology.
For expression VPS34 was infected at 1MOI in SF9 cells and harvested 72 hours post infection.
For purification, VPS34 is purified by Glutathione Sepharose 4 Fast Flow (GE Healthcare #17-5132-03) followed by HiTrap Q (GE Healthcare #17-1153-01).
3) VPS34 is assayed using Adapta™ Universal Kinase Assay Kit (Invitrogen).
4) Human VPS34 enzyme assay method
100 mL compounds in DMSO are added to wells of a 384 well microtitre plate (Greiner 780076). At room temperature: 5 ul VPS34 reaction buffer (Invitrogen Assay Buffer Q (diluted 1 in 5 with nanopure water) plus 2 mM DTT and 2 mM MnCl2) containing ATP (20 uM, Promega) and 200 uM PI-PS substrate (Invitrogen PV5122) is added followed immediately by 5 ul VPS34 reaction buffer (as above) containing VPS34 (5 nM, Millennium Protein Sciences Group) and the mixture is incubated with shaking at room temperature for 1 hour. Then 5 ul VPS34 stop-detect mix (as per Invitrogen Adapta Assay kit (PV5009) instructions (contains kinase quench buffer, TR-FRET buffer, Adapta Eu anti-ADP antibody and Alexa Fluor 647 ADP tracer)) is added to quench the reaction. The plates are then incubated for 30 minutes at room temperature with shaking and then read on a BMG PheraStar Plus reader.

Experimental findings from patent publication US8765746B2 (Millennium Pharmaceuticals, Inc., priority 2010, dated 2014) are described below.

T4 sequence (O00329 whole entry): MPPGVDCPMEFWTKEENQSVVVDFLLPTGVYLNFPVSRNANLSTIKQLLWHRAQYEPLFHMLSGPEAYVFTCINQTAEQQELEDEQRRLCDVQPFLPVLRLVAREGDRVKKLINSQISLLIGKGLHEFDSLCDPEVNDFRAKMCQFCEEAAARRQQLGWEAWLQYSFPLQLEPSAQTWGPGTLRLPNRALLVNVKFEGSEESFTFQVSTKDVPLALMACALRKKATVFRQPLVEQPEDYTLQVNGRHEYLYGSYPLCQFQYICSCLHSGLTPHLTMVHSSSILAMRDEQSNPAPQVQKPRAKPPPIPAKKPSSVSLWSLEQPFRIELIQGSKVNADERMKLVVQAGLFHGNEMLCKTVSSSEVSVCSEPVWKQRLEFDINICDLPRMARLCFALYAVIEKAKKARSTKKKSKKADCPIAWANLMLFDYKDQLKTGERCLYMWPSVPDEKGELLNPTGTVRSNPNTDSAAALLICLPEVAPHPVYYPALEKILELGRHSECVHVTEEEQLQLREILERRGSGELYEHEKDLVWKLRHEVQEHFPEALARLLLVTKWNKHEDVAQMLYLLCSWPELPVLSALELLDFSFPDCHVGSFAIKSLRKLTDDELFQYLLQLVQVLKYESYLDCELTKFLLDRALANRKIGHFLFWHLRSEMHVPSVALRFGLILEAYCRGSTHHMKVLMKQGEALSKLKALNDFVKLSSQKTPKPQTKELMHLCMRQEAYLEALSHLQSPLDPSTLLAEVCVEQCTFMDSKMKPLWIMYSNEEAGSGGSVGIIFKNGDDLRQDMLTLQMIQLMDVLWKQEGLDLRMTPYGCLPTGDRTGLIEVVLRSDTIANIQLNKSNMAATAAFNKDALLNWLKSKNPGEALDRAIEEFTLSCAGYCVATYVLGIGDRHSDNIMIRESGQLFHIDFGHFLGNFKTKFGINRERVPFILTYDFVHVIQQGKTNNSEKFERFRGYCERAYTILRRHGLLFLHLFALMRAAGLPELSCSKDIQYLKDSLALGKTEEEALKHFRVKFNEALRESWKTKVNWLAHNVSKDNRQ
T4 sequence (P27986 whole entry partner): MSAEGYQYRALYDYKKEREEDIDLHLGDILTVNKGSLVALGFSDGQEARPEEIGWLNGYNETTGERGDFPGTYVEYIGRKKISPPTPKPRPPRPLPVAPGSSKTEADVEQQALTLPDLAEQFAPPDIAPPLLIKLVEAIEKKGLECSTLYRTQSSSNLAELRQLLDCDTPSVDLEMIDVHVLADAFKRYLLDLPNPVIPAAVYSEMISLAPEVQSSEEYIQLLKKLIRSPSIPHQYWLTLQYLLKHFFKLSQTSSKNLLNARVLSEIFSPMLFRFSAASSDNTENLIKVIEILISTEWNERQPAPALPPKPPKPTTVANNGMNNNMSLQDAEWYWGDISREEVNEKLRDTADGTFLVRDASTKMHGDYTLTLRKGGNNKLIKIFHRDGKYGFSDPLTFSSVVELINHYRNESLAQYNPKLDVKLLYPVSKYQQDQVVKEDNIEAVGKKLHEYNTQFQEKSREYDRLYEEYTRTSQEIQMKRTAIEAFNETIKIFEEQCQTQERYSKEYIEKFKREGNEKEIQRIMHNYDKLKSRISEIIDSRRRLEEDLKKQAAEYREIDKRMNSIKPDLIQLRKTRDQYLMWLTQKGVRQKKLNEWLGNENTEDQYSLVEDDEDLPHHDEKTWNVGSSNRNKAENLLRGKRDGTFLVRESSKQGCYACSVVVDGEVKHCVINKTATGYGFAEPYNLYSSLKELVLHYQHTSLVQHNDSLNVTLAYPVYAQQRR
T1 sequence (P42336 whole entry): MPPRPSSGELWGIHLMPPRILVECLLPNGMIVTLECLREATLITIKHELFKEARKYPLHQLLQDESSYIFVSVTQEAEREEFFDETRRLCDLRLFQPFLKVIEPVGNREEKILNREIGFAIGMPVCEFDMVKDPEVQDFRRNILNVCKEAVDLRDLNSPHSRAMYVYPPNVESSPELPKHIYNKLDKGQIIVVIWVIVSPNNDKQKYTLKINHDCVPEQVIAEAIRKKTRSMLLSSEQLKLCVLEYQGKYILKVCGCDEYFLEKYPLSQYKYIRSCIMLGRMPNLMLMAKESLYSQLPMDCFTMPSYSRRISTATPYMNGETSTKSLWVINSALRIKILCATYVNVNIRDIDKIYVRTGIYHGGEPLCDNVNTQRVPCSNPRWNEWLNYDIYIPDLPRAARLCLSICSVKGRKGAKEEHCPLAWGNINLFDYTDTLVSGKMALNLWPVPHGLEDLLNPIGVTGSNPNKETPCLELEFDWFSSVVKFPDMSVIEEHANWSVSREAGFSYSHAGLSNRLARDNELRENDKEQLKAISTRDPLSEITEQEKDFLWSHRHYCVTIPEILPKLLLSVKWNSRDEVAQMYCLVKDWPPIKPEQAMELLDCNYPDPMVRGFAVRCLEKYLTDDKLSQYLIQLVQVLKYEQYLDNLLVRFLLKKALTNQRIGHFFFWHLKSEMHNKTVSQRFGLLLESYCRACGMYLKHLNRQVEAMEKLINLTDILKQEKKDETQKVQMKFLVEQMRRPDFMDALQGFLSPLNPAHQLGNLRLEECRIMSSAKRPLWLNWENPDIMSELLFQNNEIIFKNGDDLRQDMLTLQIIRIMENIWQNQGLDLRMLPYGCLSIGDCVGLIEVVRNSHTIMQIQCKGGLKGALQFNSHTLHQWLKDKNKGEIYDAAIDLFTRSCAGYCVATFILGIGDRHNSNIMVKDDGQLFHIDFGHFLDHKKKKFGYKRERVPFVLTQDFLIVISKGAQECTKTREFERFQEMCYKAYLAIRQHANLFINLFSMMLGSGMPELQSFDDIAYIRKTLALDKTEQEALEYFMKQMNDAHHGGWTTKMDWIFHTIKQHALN
T1 sequence (P27986 whole entry partner): as the sequence (P27986 whole entry partner) above
T5 sequence (Q8NEB9 whole entry): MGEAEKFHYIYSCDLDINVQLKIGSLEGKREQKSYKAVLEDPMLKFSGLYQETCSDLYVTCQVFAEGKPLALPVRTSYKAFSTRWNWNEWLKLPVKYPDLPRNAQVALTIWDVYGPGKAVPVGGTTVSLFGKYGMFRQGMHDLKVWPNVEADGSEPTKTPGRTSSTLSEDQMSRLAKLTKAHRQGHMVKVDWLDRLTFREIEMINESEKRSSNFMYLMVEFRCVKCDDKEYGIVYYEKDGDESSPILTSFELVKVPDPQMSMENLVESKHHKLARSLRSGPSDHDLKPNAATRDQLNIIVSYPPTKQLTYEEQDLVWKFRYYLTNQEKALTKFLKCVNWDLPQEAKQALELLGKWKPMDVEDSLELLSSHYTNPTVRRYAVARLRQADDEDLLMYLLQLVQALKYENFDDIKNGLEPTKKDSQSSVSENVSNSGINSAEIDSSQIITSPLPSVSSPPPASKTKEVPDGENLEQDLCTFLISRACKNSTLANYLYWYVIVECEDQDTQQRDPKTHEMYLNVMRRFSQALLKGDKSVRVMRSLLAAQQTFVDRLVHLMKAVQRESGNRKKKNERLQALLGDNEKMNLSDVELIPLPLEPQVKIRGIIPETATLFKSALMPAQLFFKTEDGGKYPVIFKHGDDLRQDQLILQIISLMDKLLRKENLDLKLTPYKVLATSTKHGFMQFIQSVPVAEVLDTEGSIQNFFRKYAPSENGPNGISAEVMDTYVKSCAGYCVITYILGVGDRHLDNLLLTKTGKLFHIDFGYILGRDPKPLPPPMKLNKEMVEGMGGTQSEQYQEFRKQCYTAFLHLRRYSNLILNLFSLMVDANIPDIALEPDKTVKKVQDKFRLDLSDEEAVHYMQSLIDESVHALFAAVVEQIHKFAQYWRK
T2 sequence (P42338 whole entry): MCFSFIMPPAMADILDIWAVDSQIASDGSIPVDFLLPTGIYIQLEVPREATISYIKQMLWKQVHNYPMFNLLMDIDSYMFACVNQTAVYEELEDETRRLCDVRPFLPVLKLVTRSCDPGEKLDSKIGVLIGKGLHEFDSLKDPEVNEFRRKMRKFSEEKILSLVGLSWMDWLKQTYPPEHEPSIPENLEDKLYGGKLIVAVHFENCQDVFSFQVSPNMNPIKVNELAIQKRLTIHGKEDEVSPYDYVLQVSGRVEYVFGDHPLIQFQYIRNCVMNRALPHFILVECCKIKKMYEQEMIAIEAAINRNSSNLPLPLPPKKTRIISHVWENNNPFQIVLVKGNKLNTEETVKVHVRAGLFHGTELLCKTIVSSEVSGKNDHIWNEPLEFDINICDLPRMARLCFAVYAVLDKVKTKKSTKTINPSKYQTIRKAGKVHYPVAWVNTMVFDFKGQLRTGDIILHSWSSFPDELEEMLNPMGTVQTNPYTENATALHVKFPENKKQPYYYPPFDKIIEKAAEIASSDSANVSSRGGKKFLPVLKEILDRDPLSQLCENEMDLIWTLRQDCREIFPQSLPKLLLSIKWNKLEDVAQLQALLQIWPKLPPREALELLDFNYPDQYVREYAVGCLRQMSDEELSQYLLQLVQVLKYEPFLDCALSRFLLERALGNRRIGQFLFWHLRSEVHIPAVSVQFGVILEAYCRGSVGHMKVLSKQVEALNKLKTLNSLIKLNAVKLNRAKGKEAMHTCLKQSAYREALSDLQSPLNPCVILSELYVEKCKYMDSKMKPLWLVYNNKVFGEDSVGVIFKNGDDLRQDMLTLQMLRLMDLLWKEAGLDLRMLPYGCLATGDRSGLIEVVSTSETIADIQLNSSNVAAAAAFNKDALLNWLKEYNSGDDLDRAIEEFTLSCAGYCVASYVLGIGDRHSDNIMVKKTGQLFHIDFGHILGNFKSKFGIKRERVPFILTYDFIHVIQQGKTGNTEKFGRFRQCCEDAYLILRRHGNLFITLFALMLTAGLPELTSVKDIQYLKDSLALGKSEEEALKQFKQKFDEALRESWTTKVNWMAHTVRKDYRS
T2 sequence (P27986 whole entry partner): as the sequence (P27986 whole entry partner) above

For the compound `O=S1(=O)NCC(O)(c2ccc(Cl)cc2)c2cc(-c3ccncc3)sc21` (single isomer, unassigned) [Compound 9, 4-(4-chlorophenyl)-6-pyridin-4-yl-3,4-dihydro-2H-thieno[3,2-e][1,2]thiazin-4-ol 1,1-dioxide], at PI3Kalpha, the inhibition at 1.11 µM came to 3.6%. At PI3Kbeta, the PI3Kbeta % inh is given as 67.200% and the concentration for half-maximal inhibition (IC50) (as a rule, the concentration at which inhibition is half-maximal) fell in the range of 100 to 1000 nM. In addition, the PI3Kgamma % inh at PI3Kgamma was 3.300%. The PI3Kdelta % inh on PI3Kdelta stood at 41.900%. In addition, at VPS34, the VPS34 % ihn is listed as −2.200%.
As for `O/N=C1\CCC(c2ccc(Cl)cc2)c2cc(-c3ccncc3)sc21` (stereo not shown) [Compound 24], the inhibition at 1.11 µM at PI3Kalpha was 13.8%; on PI3Kbeta, 98.1%; at PI3Kgamma, 16.9%; at PI3Kdelta, 54.2%; on VPS34 it was -6.9%.
For the compound `O=C1NCC(c2ccc(Cl)cc2)c2cc(-c3ccncc3)sc21` (stereo not shown) [Compound 156], the PI3Kalpha % inh on PI3Kalpha turned out to be 6.34%. On PI3Kbeta, the PI3Kbeta % inh was found to be 94.95%. Moreover, the PI3Kgamma % inh on PI3Kgamma stood at 11.17%. The same compound displayed a PI3Kdelta % inh on PI3Kdelta of 36.03%. Further, the VPS34 % ihn at VPS34 is −0.21%.
Consider `COC(=O)[C@@H]1C(=O)c2sc(-c3ccncc3)cc2[C@H]1c1ccc(Cl)cc1` (relative stereo) [Compound 29, trans-methyl 4-(4-chlorophenyl)-6-oxo-2-(pyridin-4-yl)-5,6-dihydro-4H-cyclopenta[b]thiophene-5-carboxylate], for which the inhibition at 1.11 µM came to 6% on PI3Kalpha; 87.8% on PI3Kbeta; 4.6% at PI3Kgamma; 20.9% on PI3Kdelta; 1.4% at VPS34. On PI3Kbeta, the half-maximal inhibitory concentration (IC50) fell in the range of 100 to 1000 nM.
On to `O=C1N[C@@H](CO)[C@H](c2ccc(Cl)cc2)c2cc(N3CCOCC3)sc21` [Compound 133], for which the inhibition at 1.11 µM on PI3Kalpha came out at 35%; at PI3Kbeta, 110%; at PI3Kgamma, 30.7%; at PI3Kdelta it was 102%.
For the compound `N#Cc1c(N2CCOCC2)sc2c1C(c1ccc3ccccc3c1)NC2=O` (stereo not shown) [Compound 169], the inhibition at 1.11 µM at PI3Kalpha came out at 50.6%; on PI3Kbeta, 99.7%; at PI3Kgamma it was 71.3%; on PI3Kdelta it was 98.2%.
For `N#Cc1c(N2CCOCC2)sc2c1C(c1ccc(Cl)cc1)CCNC2=O` (stereo not shown) [Compound 150] the same measures were 26.8%, 108%, 21.5% and 99.9%.
On PI3Kalpha, `O=C1NCCC(c2ccc(Cl)cc2)c2cc(N3CCOCC3)sc21` (stereo not shown) [Compound 148] yielded a PI3Kalpha % inh of 24.59%. The PI3Kbeta % inh on PI3Kbeta worked out at 118.63%. For the same compound, the inhibition at 1.11 µM on PI3Kgamma was found to be 13.2%; at PI3Kdelta it was 98.2%.
At PI3Kalpha, `CCNC(=O)[C@@H]1NC(=O)c2sc(N3CCOCC3)cc2[C@H]1c1ccc(Cl)cc1` [Compound 197] had a PI3Kalpha % inh of 19.34%. Also, the inhibition at 1.11 µM came out at 84.1% at PI3Kbeta, 9.08% at PI3Kgamma and 47.4% on PI3Kdelta.
As for `N#Cc1c(N2CCOCC2)sc2c1C(c1ccc(Cl)cc1)OC2=O` (stereo not shown) [Compound 3, 4-(4-chlorophenyl)-2-morpholin-4-yl-6-oxo-4,6-dihydrothieno[2,3-c]furan-3-carbonitrile], the inhibition at 1.11 µM at PI3Kalpha was 10.8%; on PI3Kbeta, 65.7%; at VPS34, -2.5%. Besides, the half-inhibitory concentration (IC50) on PI3Kbeta lay within 100 to 1000 nM.
Turning to `NC(=O)[C@@H]1NC(=O)c2sc(N3CCOCC3)cc2[C@H]1c1ccc(Cl)c(Cl)c1` (relative stereo) [Compound 146, rel-(4R,5R)-4-(3,4-dichlorophenyl)-2-(morpholin-4-yl)-7-oxo-4,5,6,7-tetrahydrothieno[2,3-c]pyridine-5-carboxamide], the inhibition at 1.11 µM came out at 40.4% on PI3Kalpha, 107% on PI3Kbeta, 50.7% on PI3Kgamma and 99.7% at PI3Kdelta.
In turn, `O=C1N[C@@H](C(=O)NCCO)[C@H](c2ccc(Cl)cc2)c2cc(N3CCOCC3)sc21` [Compound 153] came in with a PI3Kalpha % inh at PI3Kalpha of 20.40%. For the same compound, the PI3Kbeta % inh at PI3Kbeta is 87.14%. In addition, the inhibition at 1.11 µM on PI3Kgamma was 9.08%; at PI3Kdelta, 39.8%.
Taken in the same sequence, the figures for `CNC(=O)[C@@H]1NC(=O)c2sc(N3CCOCC3)cc2[C@H]1c1ccc(Cl)cc1` [Compound 123] were 32.28%, 101.46%, 10.4% and 49.6%.
As for `CCCOC(=O)[C@@H]1NC(=O)c2sc(N3CCOCC3)cc2[C@H]1c1ccc(Cl)cc1` [Compound 136], at PI3Kalpha, the PI3Kalpha % inh worked out at 17.00%. In addition, the PI3Kbeta % inh on PI3Kbeta was found to be 87.47%. For the same compound, the PI3Kgamma % inh on PI3Kgamma is recorded as 4.11%. Also, the PI3Kdelta % inh at PI3Kdelta was found to be 35.35%.
For the compound `N#Cc1c(N2CCOCC2)sc2c1C(c1c(F)cc(Cl)cc1F)CNC2=O` (stereo not shown) [Compound 151], the inhibition at 1.11 µM was found to be 43.1% at PI3Kalpha, 103% on PI3Kbeta, 41% at PI3Kgamma and 90% on PI3Kdelta.
For `O=C1N[C@@H](C(=O)NCCCO)[C@H](c2ccc(Cl)cc2)c2cc(N3CCOCC3)sc21` [Compound 170], the PI3Kalpha % inh at PI3Kalpha was determined as 22.53%. For the same compound, the PI3Kbeta % inh on PI3Kbeta is 83.73%. In addition, the values for the inhibition at 1.11 µM on PI3Kgamma and at PI3Kdelta were 12.5% and 51.6%, respectively.
For `Cc1cc(C2CNC(=O)c3sc(N4CCOCC4)c(C#N)c32)ccc1Cl` (stereo not shown) [Compound 190], the inhibition at 1.11 µM at PI3Kalpha came out at 57.5%; on PI3Kbeta, 123%; on PI3Kgamma, 35.8%; on PI3Kdelta it was 101%.
Regarding `O=C1NCC(c2ccc(Cl)c(Cl)c2)c2cc(N3CCOCC3)sc21` (stereo not shown) [Compound 176, 4-(3,4-dichlorophenyl)-2-morpholino-5,6-dihydrothieno[2,3-c]pyridin-7(4H)-one], the PI3Kalpha % inh on PI3Kalpha is 28.06%. For the same compound, the PI3Kbeta % inh at PI3Kbeta was determined as 105.20%. The inhibition at 1.11 µM on PI3Kgamma turned out to be 60.1%; at PI3Kdelta it was 108%.
On to `CC(C)NC(=O)[C@@H]1NC(=O)c2sc(N3CCOCC3)cc2[C@H]1c1ccc(Cl)cc1` [Compound 162], for which the inhibition at 1.11 µM was 7.94% at PI3Kalpha, 70.6% at PI3Kbeta, 3.59% on PI3Kgamma and 41.8% at PI3Kdelta.
